In US9359281B2, “Enantiomers of 2-hydroxy derivatives of fatty acids” (UNIVERSITAT DE LES ILLES BALEARS, priority 2011, dated 2016):
Where “and” joins values, the source holds several entries; their conditions need not be identical. Equal values may be shown once.

Assays:
U87 cells = assay: Cell growth inhibition, U87; format: cell-based, human; parameters: key to Effect (anti-proliferation effect): +: inhibition of cell growth; −: absence of effect; conditions: for IC50: U87, sodium salt form
Text: (§1) At this respect, concentrations which inhibit growth of tumour cells (IC50) are lower for the enantiomer S ([−]) in all studied tumour lines (Table 5). […] In all of the cases, the molecules employed were in the form of sodium salt.

[1] = Triglyceride and total cholesterol levels in SHR rats; format: in vivo; conditions: 600 mg/kg every 12 h, orally; for CHOt levels after treatment: 15 days, basal 73 mg/dl; for plasmatic TG levels after treatment: 2 weeks, basal 108 mg/dl
Protocol: D. Effects on cholesterol and triglyceride levels: SHR rats were treated with 2OHOA racemic (+/−) and its optic isomers [−]2OHOA and [+]2OHOA (600 mg/kg every 12 h, 15 days, orally). […] Values of average±EEM seric levels of lipids expressed as mg/dl (ordinate axis; n=6) are shown.
(§2) What is more, we studied the effect of the isomers above on arterial pressure, body weight, and the level of cholesterol, triglycerides and glycemia (glucose in plasma) in SHR rats SHR (FIGS. 8B, 8C and 8D and 8E). […] Similarly, during 1 and 5 days of treatment, rats treated with the racemic loosed 11 gram of weight (approximately a 3% of their body weight), whereas animals of the group treated with enantiomer [−]2OHOA loosed 21 grams and animals of the group treated with enantiomer [+]2OHOA only loosed 7 grams of weight. On the other hand, a higher effect of enantiomer [+]2OHOA in the reduction of triglyceride (TG) and total cholesterol (CHOt) levels was observed (FIG. 8D) At this respect, plasmatic basal levels of TG in SHR rats are of 108 mg/dl and were reduced to 56 mg/dl after 2 weeks treatment […]. On the other hand, treatment with enantiomer [+]2OHOA inducted a reduction of plasmatic TG levels to 47 mg/dl, whereas enantiomer [−]2OHOA only produced a modest reduction to 81 mg/dl. In parallel, levels of CHOt were reduced from 73 mg/dl to 43 mg/dl (racemic), 36 mg/dl (enantiomer [+]2OHOA) and 59 mg/dl (enantiomer [−]2OHOA), respectively.

[2] = Plasmatic glucose levels in SHR rats; format: in vivo; conditions: 600 mg/kg, 12 h, 15 days, by mouth
Protocol: E. Effects on […] (plasmatic glucose levels): SHR rats were treated with vehicle (control), racemic 2OHOA and their optical isomers [−] 2OHOA and [+]2OHOA (600 mg/kg, 12 h, 15 days, by mouth). The racemic compound and the [−]
as §2

U937 cells = assay: Cell growth inhibition, U937; format: cell-based, human; parameters: key to Effect (anti-proliferation effect): +: inhibition of cell growth; −: absence of effect; conditions: for IC50: U937, sodium salt form
Text: as §1

A549 cells = assay: Cell growth inhibition, A549; format: cell-based, human; parameters: key to Effect (anti-proliferation effect): +: inhibition of cell growth; −: absence of effect
Text: as §1

Body weight of SHR rats = format: in vivo; conditions: 600 mg/kg·day, 5 days, orally
Protocol: C. Effect on body weight: SHR rats were treated with 2OHOA racemic (+/−) and its optic isomers [−]2OHOA and [+]2OHOA (600 mg/kg·day, 5 days, orally). […] Values of average±EEM body weight (abscises axis, n=6) are shown.
as §2

HepG2 cells = assay: Cell growth inhibition, HepG2; format: cell-based, human; parameters: key to Effect (anti-proliferation effect): +: inhibition of cell growth; −: absence of effect; conditions: for IC50: HepG2, sodium salt form
Text: as §1

U118 cells = assay: Cell growth inhibition, U118; format: cell-based, human; parameters: key to Effect (anti-proliferation effect): +: inhibition of cell growth; −: absence of effect; conditions: for IC50: U118, sodium salt form
Text: as §1

HT29 cells = assay: Cell growth inhibition, HT29; format: cell-based, human; parameters: key to Effect (anti-proliferation effect): +: inhibition of cell growth; −: absence of effect; conditions: for IC50: HT29, sodium salt form
Text: as §1

[3] = system: human lung cancer cells (A549); assay: Volume of tumours derived from human lung cancer cells (A549) in mice; format: in vivo; conditions: 600 mg/kg·day, 15 days, orally
Protocol: A. Effect on the volume of tumours derived from human lung cancer cells (A549): immuno-depressed mice were infected with human lung cancer cells and 7 days later (when the tumours were observable), treatments started with vehicle (control), 2OHOA racemic (+/−), and optic isomers [−]2OHOA and [+]2OHOA (600 mg/kg·day, 15 days, orally). The bars correspond to values of an average±EEM (n=3-5) of the increase in volume (mm^3) of the tumours (n=6).
On the other hand, we investigated the antitumoral activity of these compounds in different types of human cancer (see Tables 2, 4 and 5). […] Furthermore, the activity of these enantiomers was proven against a vast variety of human cancers of different nature, since it can be stated that enantiomers [−] of 2-hydroxylated fatty acids have a high potency in the treatment of any type of cancer.

IMR90 cells = assay: Cell growth inhibition, IMR90; format: cell-based, human; parameters: key to Effect (anti-proliferation effect): +: inhibition of cell growth; −: absence of effect; conditions: for IC50: IMR90 non tumor fibroblast, sodium salt form
Text: as §1

HeLa cells = assay: Cell growth inhibition, HeLa; format: cell-based, human; parameters: key to Effect (anti-proliferation effect): +: inhibition of cell growth; −: absence of effect; conditions: for IC50: sodium salt form
Text: as §1

MRC-5 cells = assay: Cell growth inhibition, MRC-5; format: cell-based, human; parameters: key to Effect (anti-proliferation effect): +: inhibition of cell growth; −: absence of effect; conditions: for IC50: MRC-5 non tumor fibroblast, sodium salt form
Text: as §1

[4] = Toxicity and side effects (symptoms) in treated tumour-bearing mice; format: in vivo; conditions: for Toxicity: symptoms registered / Toxicity: Behaviour symptoms, percentage of animals / Toxicity: Diarrhoea, percentage of animals: 15 days
Text: This example recounts the study carried out on immuno-depressed mice infected with human glioma (SF767) cells and treated for 15 days (orally) with the indicated dose (Table 3).

BXPC3 cells = assay: Cell growth inhibition, BXPC3; format: cell-based, human; parameters: key to Effect (anti-proliferation effect): +: inhibition of cell growth; −: absence of effect; conditions: for IC50: BXPC3, sodium salt form
Text: as §1

Jurkat cells = assay: Cell growth inhibition, Jurkat; format: cell-based, human; parameters: key to Effect (anti-proliferation effect): +: inhibition of cell growth; −: absence of effect; conditions: for IC50: sodium salt form
Text: as §1

A375 cells = assay: Cell growth inhibition, A375; format: cell-based, human; conditions: A375, sodium salt form
Text: as §1

| Compound | plasma glucose levels (glycemia) [2] | volume of tumours derived from A549 cells [3] | Toxicity: symptoms registered ([4]; 50 mg/kg orally) | Toxicity: symptoms registered ([4]; 75 mg/kg orally) | Toxicity: symptoms registered ([4]; 100 mg/kg orally) | Toxicity: symptoms registered ([4]; 150 mg/kg orally) | Toxicity: Behaviour symptoms, percentage of animals ([4]; 200 mg/kg orally) | Toxicity: Diarrhoea, percentage of animals ([4]; 200 mg/kg orally) | Toxicity: Behaviour symptoms, percentage of animals ([4]; 400 mg/kg orally) | Toxicity: Diarrhoea, percentage of animals ([4]; 400 mg/kg orally) | Toxicity: Behaviour symptoms, percentage of animals ([4]; 600 mg/kg orally) | Toxicity: Diarrhoea, percentage of animals ([4]; 600 mg/kg orally) | IC50 (U87 cells) [µM] | plasmatic TG levels after treatment ([1]; 600 mg/kg) | CHOt levels after treatment ([1]; 600 mg/kg) [mg/dL] | IC50 (U937 cells) [µM] | IC50 (A549 cells; A549, sodium salt form) [µM] | loss of body weight (Body weight of SHR rats; 600 mg/kg) [gram] | IC50 (HepG2 cells) [µM] | IC50 (U118 cells) [µM] | other results |
| --- | --- | --- | --- | --- | --- | --- | --- | --- | --- | --- | --- | --- | --- | --- | --- | --- | --- | --- | --- | --- | --- |
| CCCCCCCC/C=C\CCCCCCC(O)C(=O)O (racemic) [2OHOA, 2-hydroxyoleic acid] | significant reductions | significant reductions | No | No | No | No | Behaviour 16% | Diarrhoea 16% | Behaviour 16% | Diarrhoea 32% | Behaviour 50% | Diarrhoea 50% |  |  |  |  |  |  |  |  | IC50 (U87 cells; Homo sapiens, U-87 MG): 81.6 µM; CHOt levels after treatment [1]: 43 mg/dL; IC50 (U937 cells; Homo sapiens, U-937): 183 µM; IC50 (A549 cells; Homo sapiens, A549, A549, sodium salt form): 94.1 ± 8.8 µM; loss of body weight (Body weight of SHR rats): 11 gram; loss of body weight as share of body weight (Body weight of SHR rats): ~3%; IC50 (HepG2 cells; Homo sapiens): 41.4 µM; IC50 (U118 cells; Homo sapiens): 142 µM; IC50 (HT29 cells; Homo sapiens, HT-29): 225 µM; IC50 (IMR90 cells; Homo sapiens, IMR-90): > 5000 µM; IC50 (HeLa cells; Homo sapiens): 127 µM; IC50 (MRC-5 cells; Homo sapiens, MRC5): > 5000 µM; side effects ([4]; 600 mg/kg, 15 days orally): important side effects; IC50 (BXPC3 cells; Homo sapiens, BXPC-3): 98.3 µM; IC50 (Jurkat cells; Homo sapiens): 62.9 µM; IC50 (A375 cells; Homo sapiens, A-375): 273 µM |
| CCCCCCCC/C=C\CCCCCCC(O)C(=O)O (stereo not shown) [[−]2OHOA] [[−] HOOC—HOCH—(CH2)6—(CH═CH—CH2)1—(CH2)6—CH3] | significant reductions | significant reductions compared with all the other treatments | no side effects and No | No | No | No |  |  | Behaviour 16% | Diarrhoea 16% | Behaviour 50% | Diarrhoea 32% | 53.5 | 81 mg/dL | 59 | 136 | 52.6 | 21 | 32.9 | 97.8 | Effect (anti-proliferation effect) (U87 cells; U87): +; Effect (anti-proliferation effect) (U937 cells; U937): +; Effect (anti-proliferation effect) (A549 cells; A549): +; IC50 (A549 cells; A549, sodium salt form, listed as [−]2OH18:1): 52.6 ± 9.5 µM; Effect (anti-proliferation effect) (HepG2 cells; HepG2): +; Effect (anti-proliferation effect) (U118 cells; U118): +; Effect (anti-proliferation effect) (HT29 cells; HT29): +; IC50 (HT29 cells): 159 µM; Effect (anti-proliferation effect) (IMR90 cells; IMR90): −; IC50 (IMR90 cells): > 5000 µM; Effect (anti-proliferation effect) (HeLa cells): +; IC50 (HeLa cells): 74.5 µM; Effect (anti-proliferation effect) (MRC-5 cells; MRC-5): −; IC50 (MRC-5 cells): > 5000 µM; Toxicity: symptoms registered ([4]; 200 mg/kg orally): No; Effect (anti-proliferation effect) (BXPC3 cells; BXPC3): +; IC50 (BXPC3 cells): 61.8 µM; Effect (anti-proliferation effect) (Jurkat cells): +; IC50 (Jurkat cells): 35.7 µM; IC50 (A375 cells): 163 µM |
| CCCCCCCC/C=C\CCCCCCC(O)C(=O)O (stereo not shown) [[+]2OHOA] [[+]HOOC—HOCH—(CH2)6—(CH═CH—CH2)1—(CH2)6—CH3] | reduction without statistical significance | no significant changes in the volume of tumours | No | No | No | No | Behaviour 16% | Diarrhoea 16% | Behaviour 32% | Diarrhoea 16% | Behaviour 50% | Diarrhoea 66% | 148 | 56 mg/dL and 47 mg/dL | 36 | 214 | 133 | 7 | 76.7 | 212 | IC50 (A549 cells; A549, sodium salt form, listed as [+]2OH18:1): 133 ± 9.8 µM; IC50 (HT29 cells): 342 µM; IC50 (IMR90 cells): > 5000 µM; IC50 (HeLa cells): 206 µM; IC50 (MRC-5 cells): > 5000 µM; IC50 (BXPC3 cells): 154 µM; IC50 (Jurkat cells): 97.2 µM; IC50 (A375 cells): 407 µM |
